Test results: patent publication EP4755890A1, “OXO-TRICYCLIC DERIVATIVE AND PHARMACEUTICAL USE THEREOF” (Haisco Pharmaceutical Group Co., Ltd., priority 2023, dated 2025)

Experiments:
[1] = target: T1, WRN protein (AA N517-P1238, ICE, Cat. S2212T-H56HZ) (Homo sapiens, UniProt Q14191); test: Assay for WRN helicase activity (FORKF dsDNA unwinding, fluorescence); type: biochemical; conditions: inhibition of WRN helicase activity; 10 nM WRN, 10 nM FORKF, 2 mM ATP
T1 construct: WRN protein (AA N517-P1238, ICE, Cat. S2212T-H56HZ); purchased ICE S2212T-H56HZ
Experimental: The assay buffer working solution prepared with RNAase-free water was as follows: 25 mM Tris (pH 7.5), 2 mM MgCl2, 50 mM NaCl, 0.02% BSA, 0.01% Tween, and 1 mM DTT. WRN protein (AA N517-P1238, ICE, Cat. S2212T-H56HZ) was obtained through protein expression and purification in vitro. Two single-stranded DNAs were synthesized: […]-BHQ2 (quencher), and (fluorophore) TAMRA-[…]. dsDNA (FORKF) was obtained via annealing of the two single-stranded DNAs. When the WRN protein bound to FORKF, the dsDNA was unwound, exposing the fluorophore, thereby generating fluorescence. 2 µL of compounds at different concentrations and 4 µL of WRN protein were added to a 384-well black plate (Greiner, Cat#784075). The plate was pre-incubated at room temperature for 20 minutes. 2 µL each of ATP and the FORKF substrate were added. The working concentrations of the WRN protein, FORKF, and ATP were 10 nM, 10 nM, and 2 mM, respectively. The plate was incubated at room temperature for 20 minutes. After the incubation was completed, the fluorescence value was read at Ex 540 nm/Em 590 nm using a BMG microplate reader (PHERAstar FSX).
(§1) The inhibition rate was calculated according to Formula 2, where RLUsample is the readout of the compound well, RLUmax is the readout of the DMSO control well, and RLUmin is the readout of the control well without the WRN protein. Curve fitting was performed via a four-parameter logistic model using GraphPad Prism software, and the IC50 value (the concentration of the compound when the inhibition rate was 50%) was calculated. Inhibition% = (1−(RLUsample−RLUmin)/(RLUmax−RLUmin)) × 100% [formula] Table 2. Results of inhibitory activity of test compounds against WRN helicase activity

[2] = Mouse pharmacokinetic assay; type: in vivo, Balb/c mice; conditions: po, mouse plasma, i.g. (10 mg/kg)
Experimental: 4.1. Experimental animals: Male Balb/c mice, about 22 g, 6-8 weeks old, 6 mice/compound. The animals were purchased from CHENGDU DOSSY EXPERIMENTAL ANIMALS CO., LTD.
4.2. Experimental design: On the day of the experiment, the Balb/c mice were randomly grouped according to their body weights. The animals were fasted with water available for 12-14 h one day before the administration, and were fed 4 h after the administration. Table 4. Administration information
Vehicle for intravenous administration: 5% DMA + 5% Solutol + 90% Saline; and vehicle for intragastric administration: 5% DMSO + 95% (20% SBE-β-CD in Saline)
Before and after the administration, 0.03 ml of blood was taken from the orbit under isoflurane anesthesia and placed in an EDTAK2 centrifuge tube. The tube was centrifuged at 5000 rpm at 4°C for 10 min, and plasma was collected. The blood collection time points for the intravenous administration group and intragastric administration group were as follows: 0, 2 min, 5 min, 15 min, 30 min, 1 h, 2 h, 4 h, and 7 h. Before analysis and detection, all samples were stored at - 80°C. Table 5. Pharmacokinetic parameters of test compounds in mouse plasma

[3] = Beagle dog pharmacokinetic assay; type: in vivo, Beagle dogs; conditions: male, po; Beagle dog plasma, i.g. (3 mg/kg)
Experimental: 7.1. Experimental animals: Male Beagle dogs, about 8-13 kg, 6 Beagle dogs/compound.
7.2. Experimental method: On the day of the experiment, the Beagle dogs were randomly grouped according to their body weights. The animals were fasted with water available for 14-18 h one day before the administration, and were fed 4 h after the administration. The animals were administered according to Table 6. Table 6. Administration information
Note: Vehicle for intravenous administration: 5% DMA + 5% Solutol + 90% Saline; and vehicle for intragastric administration: 5% DMSO + 95% (20% SBE-β-CD in Saline) (DMA: dimethylacetamide; Solutol: polyethylene glycol-15-hydroxystearate; Saline: normal saline; and MC: methylcellulose)
Before and after the administration, 1 ml of blood was taken from the jugular veins or limb veins and placed in an EDTAK2 centrifuge tube. The tube was centrifuged at 5000 rpm at 4°C for 10 min, and plasma was collected. The blood collection time points for the intravenous administration group and intragastric administration group were as follows: 0, 5 min, 15 min, 30 min, 1 h, 2 h, 4 h, 6 h, 8 h, 10 h, 12 h, 24 h, and 48 h. Before analysis and detection, all samples were stored at -80°C. The samples were analyzed quantitatively by LC-MS/MS. Table 7. Pharmacokinetic parameters of test compounds in Beagle dog plasma

[4] = target: T2, WRN protein (AA N517-P1238, ICE) (Homo sapiens, UniProt Q14191); test: Assay for ATPase activity of WRN helicase (ADP-Glo); type: biochemical; conditions: inhibition of ATPase activity of WRN helicase; 0.3 nM WRN, 0.2 nM DNA substrate, 10 µM ATP
T2 construct: WRN protein (AA N517-P1238, ICE); purchased ICE
Experimental: The assay buffer working solution was as follows: 30 mM Tris pH 7.5 + 0.02% BSA + 2 mM MgCl2 + 50 mM NaCl + 0.1% Pluronic® F127 + 1 mM DTT. WRN protein (AA N517-P1238, ICE) was obtained through protein expression and purification in vitro. A single-stranded DNA substrate ([…]) was synthesized in vitro. 1 µL each of compounds at different concentrations, the WRN protein, and the DNA substrate, together with 2 µL of ATP, were added to a 384-well white plate. The working concentrations of the WRN protein, the DNA substrate, and the ATP were 0.3 nM, 0.2 nM, and 10 µM, respectively. The plate was incubated at room temperature for 20 minutes. After the incubation was completed, the detection was performed in accordance with the instructions of the ADP-Glo Assay Kit (Promega), and the chemiluminescence value was read.
as §1, with “1,” for “2,”, “model (log(inhibitor) vs. response -- Variable slope)” for “model”, “value” for “value (the concentration of the compound when the inhibition rate was 50%)”, “1.” for “2.”, “against ATPase activity of” for “against”, “helicase” for “helicase activity”

SW48 cells = test: SW48 cell proliferation inhibition assay (CellTiter-Glo); type: cell-based; conditions: Homo sapiens, 96 h, 4 days, read-out: Inhibitory activity against SW48 cell proliferation IC50
Experimental: (§2) The culture conditions for SW48 cells were as follows: Leibovitz L15 + 10% FBS + 1% penicillin-streptomycin, and the cells were cultured in an incubator without CO2 at 37°C. On the first day, the SW48 cells in the exponential growth phase were collected and plated in 96-well cell culture plates at a density of 1000 cells/well (180 µL/well). The plates were cultured overnight in an incubator without CO2 at 37°C. T0 wells were plated simultaneously during the plating process. The next day, 20 µL of compounds at different concentrations were added to each well (nine compound concentration gradients, one DMSO well, and one blank well; each compound concentration was plated in triplicate), and the final concentration of DMSO in each well was 0.1%. The plates were cultured in an incubator without CO2 at 37°C for 4 days. On the same day of compound addition, the T0 plate was detected using the CellTiter-Glo Kit, and the detected value was recorded as RLU0. After the culture was completed, 100 µL of detection solution (Cell Viability Assay, Promega) was added to each well. The plates were incubated at room temperature for 10 minutes with slow shaking. The chemiluminescence reading was read using a BMG microplate reader (PHERAstar FSX). The results were processed according to Formula (5) to calculate the proliferation inhibition rate of compounds at each concentration. Curve fitting was performed via a four-parameter logistic model using GraphPad Prism software, and the GI50 value (the concentration of the compound when the proliferation inhibition rate was 50%) was calculated. In the formula, RLUcompound is the readout of the drug-treated group, RLUcontrol is the average value of the compound vehicle control group, and RLUBlank is the average value of the blank control group. [formula] Table 3. Results of inhibitory activity of test compounds against cell proliferation

HT-29 cells = test: HT-29 cell proliferation inhibition assay (CellTiter-Glo); type: cell-based; conditions: Homo sapiens, 96 h, 4 days, read-out: Inhibitory activity against HT-29 cell proliferation IC50
Experimental: as §2, with “HT-29” for “SW48”, “DMEM” for “Leibovitz L15”, “with 5%” for “without”, “(4)” for “(5)”, “[formula]” for “[formula] Table 3. Results of inhibitory activity of test compounds against cell proliferation”

T1 sequence (Q14191 517-1238, stated change not applied): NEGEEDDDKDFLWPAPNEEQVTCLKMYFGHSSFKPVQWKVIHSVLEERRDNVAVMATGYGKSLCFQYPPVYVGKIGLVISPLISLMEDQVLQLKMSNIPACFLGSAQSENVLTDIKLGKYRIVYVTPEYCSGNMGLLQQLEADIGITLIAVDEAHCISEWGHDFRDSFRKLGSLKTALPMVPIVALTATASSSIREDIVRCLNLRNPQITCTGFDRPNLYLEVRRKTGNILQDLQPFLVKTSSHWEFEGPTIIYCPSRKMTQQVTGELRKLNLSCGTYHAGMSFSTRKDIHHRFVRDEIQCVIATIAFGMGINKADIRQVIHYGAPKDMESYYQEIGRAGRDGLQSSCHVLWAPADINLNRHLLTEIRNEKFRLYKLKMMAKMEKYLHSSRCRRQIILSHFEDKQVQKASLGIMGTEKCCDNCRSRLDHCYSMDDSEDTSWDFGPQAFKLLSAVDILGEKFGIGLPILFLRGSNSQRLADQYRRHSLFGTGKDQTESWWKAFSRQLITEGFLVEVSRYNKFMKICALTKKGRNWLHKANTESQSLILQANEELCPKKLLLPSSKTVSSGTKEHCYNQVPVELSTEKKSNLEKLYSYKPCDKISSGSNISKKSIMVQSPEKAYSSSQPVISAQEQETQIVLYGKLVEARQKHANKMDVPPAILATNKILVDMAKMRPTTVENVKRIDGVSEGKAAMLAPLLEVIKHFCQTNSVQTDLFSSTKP
T2 sequence (Q14191 517-1238): as the sequence (Q14191 517-1238, stated change not applied) above

Row | IC50 [1] [µM] | SMILES | IC50 (SW48 cells) [µM] | also measured
1 | < 0.02 | Cc1ncnc(C(=O)N2CCN(c3c4n(c5nc(C6=CCOCC6)nn5c3=O)C(C(=O)Nc3ccc(C(F)(F)F)c5c3CCC5)CCC4)CC2)c1O (racemic) [Compound 28] | – | –
2 | < 0.02 | Cc1ncnc(C(=O)N2CCN(c3c4n(c5nc(C6=CCOCC6)nn5c3=O)C(C(=O)Nc3ccc(C(F)(F)F)cc3Cl)CC4)CC2)c1O (single isomer, unassigned) [Compound 6-B] | – | –
3 | < 0.02 | Cc1ncnc(C(=O)N2CCN(c3c4n(c5nc(C6=CCOCC6)nn5c3=O)C(C(=O)Nc3ccc(C(F)(F)F)nc3Cl)CCC4)CC2)c1O (single isomer, unassigned) [Compound 3-B] | – | –
4 | – | Cc1ncnc(C(=O)N2CC3(CCN(c4c5n(c6nc(C7=CCOCC7)nn6c4=O)C(C(=O)Nc4ccc(C(F)(F)F)cc4Cl)CCC5)CC3)C2)c1O (single isomer, unassigned) [Compound 14-B] | – | AUC(0-t) ([2]; in vivo): 24200 ng·h/mL; half-life ([2]; in vivo): 5.41 h
5 | – | CCc1c(N2CCN(C(=O)c3ncnc(C)c3O)CC2)c(=O)n2nc(C3=CCOCC3)nc2n1CC(=O)Nc1ccc(C(F)(F)F)cc1Cl [HRO761, reference compound] | – | AUC(0-t) ([2]; male, Balb/c): 9210 ng·h/mL; half-life ([2]; male, Balb/c): 2.32 h; bioavailability ([2]; male, Balb/c, read-out: F (%)): 74.1%; AUC(0-t) [3]: 10800 ng·h/mL
6 | < 0.02 | Cc1ncnc(C(=O)N2CCN(c3c4n(c5nc(C6=CCOCC6)nn5c3=O)C(C(=O)Nc3ccc(C(F)(F)F)cc3F)CCC4)CC2)c1O (single isomer, unassigned) [Compound 15-B] | – | –
7 | < 0.02 | Cc1cc(C(F)(F)F)ccc1NC(=O)C1CCCc2c(N3CCN(C(=O)c4ncnc(C)c4O)CC3)c(=O)n3nc(C4=CCOCC4)nc3n21 (single isomer, unassigned) [Compound 5-B] | – | –

Row | SMILES | IC50 [1] [µM] | IC50 (SW48 cells) [µM] | also measured
8 | O=C(Nc1ccc(C(F)(F)F)cc1Cl)C1CCCc2c(N3CCN(C(=O)c4ncccc4O)CC3)c(=O)n3nc(C4=CCOCC4)nc3n21 (single isomer, unassigned) [Compound 2-B] | < 0.02 | < 0.1 | IC50 [4]: < 0.02 µM
9 | [2H]C1([2H])N(C(=O)c2ncnc(C)c2O)C([2H])([2H])C([2H])([2H])N(c2c3n(c4nc(C5=CCOCC5)nn4c2=O)C(C(=O)Nc2ccc(C(F)(F)F)cc2Cl)CCC3)C1([2H])[2H] (single isomer, unassigned) [Compound 7-B] | < 0.02 | < 0.1 | –
10 | Cc1ncnc(C(=O)N2CCN(c3c4n(c5nc(C6=CCOCC6)nn5c3=O)C(C(=O)Nc3ccc(C(F)(F)F)cc3Cl)CCC4)CC2)c1O (racemic) [Compound 1] | 0.02 to 0.1 | < 0.1 | –
11 | Cc1ncnc(C(=O)N2CCN(c3c4n(c5nc(C6=CCOCC6)nn5c3=O)C(C(=O)Nc3ccc(C(F)(F)F)cc3Cl)CCC4)[C@@H](C)C2)c1O (single isomer, unassigned) [Compound 26-A] | < 0.02 | < 0.1 | IC50 (HT-29 cells): ≥ 10 µM
